Measurements as given in patent US20230406849A1, “KRAS INHIBITORS FOR TREATMENT OF CANCERS” (TYLIGAND BIOSCIENCE (SHANGHAI) LIMITED, priority 2020, published 2023).
Where two headings read alike, the source gives them in different places.

Legend:
[1] = Cassette pharmacokinetic experiment in rats (IV); assay type: in vivo; settings: rat, plasma, 1 mg/kg, male SD rats, tail vein IV, 1 mg/mL each compound at 1 mL/kg
From the text: 2.1 Pharmacokinetic Properties of Some Compounds of the Present Disclosure Evaluated by Cassette Pharmacokinetic Experiments in Rats.
[Test materials]: Male SD rats, age: 6-8 weeks, body weight 220-250 g, purchased from Zhaoyan (Suzhou) New Drug Research Center Co., Ltd.; Tolbutamide (Aladdin, Cat #H1401054); Sulfobutyl-(Captisol, Shandong Binzhou Zhiyuan Biological Technology Co., Ltd, Cat #20191013); Propylene glycol (15)-stearate (Solutol, Meilun Bio, Cat #50206A); DMSO (Vetec Company, Cat #WXBD0293V); acetonitrile (Sigma-Aldrich, Cat #WXBD1744V); Methanol (Sigma-Aldrich, Cat #WXBD2831V).
[Experimental procedure]: The compound combination was prepared in a solvent of 5% DMSO/10% Solutol/85% (20% Captisol), and the final concentration of each compound was 1 mg/mL. The SD rats were treated with the compound preparation in 1 mL/kg by tail vein IV injection, and blood samples were collected at the time points of 5 min, 15 min, 30 min, 1 h, 2 h, 4 h, 8 h, and 24 h via external jugular vein puncture, centrifuged at low temperature for 20 minutes to collect plasma samples, which were stored at −80° C. until analysis.
[Sample analysis]: Establishing LC-MS/MS compound analysis method
Standard curve preparation: 20 μL of lmg/mL DMSO stock solution for each compound was aspirated and transferred to […] of 50% methanol working solution, and the resulting solution was serially diluted to obtain a standard curve working solution with concentrations of 20000, 10000, 5000, 1000, 500, 100, 50, 20 and […]. Then 5 µL of this standard curve working solution was mixed with 45 μL rat blank plasma to give a standard curve with concentrations of 2000, 1000, 500, 100, 50, 10, 2 and 1 ng/mL for quantification of unknown samples.
Sample pretreatment: 50 μL of unknown plasma sample or standard curve sample was mixed with 250 μL of acetonitrile containing internal standard as a precipitant. The plasma protein was precipitated, extracted for test compounds, and centrifuged at low temperature for 20 minutes. The supernatant was taken, mixed with 0.1% formic acid aqueous solution, and 5 μL of the resulting solution was aspirated for blood concentration analysis.
[Data processing]: A standard curve was plotted using mass spectrometry software, to quantify unknown samples, and pharmacokinetic parameters are calculated by Winnonlin 8.2 using the drug concentration of unknown samples at each time point.

[2] = test system: human non-small cell lung cancer NCI-H358 xenograft; assay: Antitumor activity in NCI-H358 xenograft mouse model; assay type: in vivo, NPSG mice; settings: NPSG mice, gavage once daily 10 mg/kg, day 14
Procedure: Tumor growth inhibitory activity of the compounds of the present disclosure was evaluated and verified in a human non-small cell lung cancer NCI-H358 xenograft mouse model.
[Test materials]: NCI-H358 cell line carrying KRAS G12C mutation, provided by KYinno Biotechnology Co., Ltd. (from ATCC, Cat #CRL-5807). NPSG mice, female, provided by Beijing Phenotek Biotechnologies Inc.
[Experimental procedure]: 5×10^6 NCI-H358 cells (containing 50% Matrigel) were inoculated subcutaneously on the right flank of 6-8 weeks old female NPSG mice, with the inoculation volume of 0.1 mL. When the average tumor size reached 160-220 mm^3, the mice were grouped randomly according to tumor size and body weight, upon which the mice were treated with compounds on the same day designated as Day 0. The mice were gavage administrated once daily at 10 mg/kg or solvent control (50 mM citrate buffer containing 10% cyclodextrin, pH5.0). Tumor volume and body weight were measured twice a week during the study. The tumor volume was calculated by the formula V=D×d×d/2, wherein D and d refer to the long and short diameter of the tumor respectively.
In addition, using the same materials and procedures as above, the tumor inhibition activity of Example 9 at different doses in the above-mentioned non-small cell lung cancer mouse model and its effect on body weight were also investigated.

[3] = test system: human non-small cell lung cancer cells NCI-H358 with KRas G12C mutation; assay: NCI-H358 cell proliferation, CellTiter-Glo Luminescent Cell Viability Assay; assay type: cell-based; settings: for inhibition at 1 µM: 1 μM compound, read-out: Inhibition rate % (1 μM)
From the text: This assay verified the inhibitory activity of the compounds of the present disclosure on the proliferation of human non-small cell lung cancer cells NCI-H358 with KRas G12C mutation by using Promega's CellTiter-Glo® Luminescent Cell Viability Assay kit.
[Test materials]: NCI-H358 cell line (Cell Resource Center, IBMS, CAMS/PUMC, Item number: 3111C0001CCC000470), 96-well transparent flat-bottomed black-walled cell culture plate (Greiner Bio one, Cat #655096), RPMI-1640 Medium (GE, Cat #SH30809.01), Fetal Bovine Serum FBS (Thermo Fisher, Cat #10099-141), CellTiter-Glo® Luminescent Cell Viability Assay Kit (Promega, Cat #G7573), PBS (Solarbio, Cat #P1020), Trypsin (Thermo Fisher, Cat #25200072), DMSO (Sigma, Cat #D2650), Methyl cellulose (SIGMA, Cat #9004-67-5).
[Experimental procedure]: 180 μL of cell suspension (RPMI1640 solution with 10% FBS and 1% methyl cellulose) was charged to a 96-well cell culture plate at a density of 1500 cells/well. A control group containing no cells, no compounds and only 3D complete medium (RPMI 1640 solution with 1! Methyl cellulose and 10% FBS) (i.e. culture medium control) and a control group containing no compounds but cells (i.e. cell control) were set. AMG510 or the following reference compounds were used as positive controls. The cell plate was placed in a cell incubator overnight. A 10-fold drug solution (RPMI1640 solution with 10% FBS and 1% DMSO) was prepared at a concentration of 10 μM, and 20 μL of this solution was added to each well of the 96-well plate seeded with cells, so that the final concentration of the compounds in each well was 1 μM, and the DMSO concentration […] replicate wells were set up for each compound. The solutions of AMG510 or the following reference compounds were prepared in the same way and added to the positive control wells. The cell plate was placed in a cell incubator and cultured for 120 h. For endpoint detection, the CellTiter-Glo reagent was melted, and the cell plate was moved to room temperature to equilibrate for 30 minutes, added with 100 µL of CellTiter-Glo to each well, and shaken on an orbital shaker for 5 minutes to fully lyse the cells. The plate was kept at room temperature for 20 minutes to stabilize the luminescence signal, and the luminescence value of each well was full wavelength scanned with a multi-functional microplate reader (Molecular Devices, Spectramax M3 microplate reader).
[Test samples] The compounds of Examples 1-39, and reference compound A
[Data Analysis] The following formula was used to calculate the cell inhibition rate under the action of each concentration of the compounds:
Inhibition rate %=[1−(LumDrug to be tested−LumCulture medium control)/(LumCell control−LUMCulture medium control)]×100%
IC50 values were calculated using GraphPad Prism 7.0 software, nonlinear Sigmoidal regression was used to fit the data to obtain a dose-response curve.

| Compound | AUC(0-t) [1] [ng·h/mL] | clearance [1] [mL/min/kg] | half-life [1] [h] | TGI(%) [2] [%] | Tumor volume (mm^3) (day 14) [2] | inhibition at 1 µM ([3]; 120 h) [%] | IC50 ([3]; 120 h, read-out: IC50) [nM] | IC50 ([3]; read-out: IC50 value) [nM] |
| --- | --- | --- | --- | --- | --- | --- | --- | --- |
| C=CC(=O)N1CCN(c2c(C#N)c(O[C@@H]3CN(C)C[C@H]3OC)nc3c(F)c(-c4ccc(F)c5sc(N)nc45)c(Cl)cc23)C[C@H]1C [Example 1, 4-((R)-4-acryloyl-3-methylpiperazin-1-yl)-7-(2-amino-7-fluorobenzo[d]thiazol-4-yl)-6-chloro-8-fluoro-2-(((3R,4R)-4-methoxy-1-methylpyrrolidin-3-yl)oxy)quinoline-3-carbonitrile] | 657 | 20.9 | 2.87 | 71 | 478.4 | 94.7 | 15 | < 20 |
| C=CC(=O)N1CCN(c2c(C#N)c(O[C@@H]3CN(C)C[C@H]3OC)nc3c(F)c(-c4ccc(F)c5sc(N)nc45)c(Cl)cc23)CC1 [Example 2, 4-(4-Acryloylpiperazin-1-yl)-7-(2-amino-7-fluorobenzo[d]thiazol-4-yl)-6-chloro-8-fluoro-2-(((3R,4R)-4-methoxy-1-methylpyrrolidin-3-yl)oxy)quinoline-3-carbonitrile] |  |  |  | 69 | 497.3 | 97.6 | 3 | < 20 |
| C=CC(=O)N1CCN(c2c(C#N)c(-c3cccc4c3CCN(C)C4)nc3c(F)c(-c4ccc(F)c5sc(N)nc45)c(Cl)cc23)CC1 [Example 10, 4-(4-Acryloylpiperazin-1-yl)-7-(2-amino-7-fluorobenzo[d]thiazol-4-yl)-6-chloro-8-fluoro-2-(2-methyl-1,2,3,4-tetrahydroisoquinolin-5-yl)quinoline-3-carbonitrile] | 592 | 27.4 | 2.66 |  |  | 96.1 | 18 | < 20 |
